In ChEMBL document CHEMBL1149093, “Design and synthesis of new templates derived from pyrrolopyrimidine as selective multidrug-resistance-associated protein inhibitors in multidrug resistance” (J Med Chem, 2004):

Key:
[1] = in vivo; details: mouse, plasma, iv, 20 mg/kg
[2] = in vivo; details: mouse, iv, 20 mg/kg
[3] = in vivo; details: mouse, ip, 50 mg/kg
[4] = in vivo; details: mouse, iv, 20 mg/kg; remark: listed apart in the source
[5] = in vivo; details: mouse, plasma, ip, 50 mg/kg
[6] = in vivo; details: mouse, ip, 50 mg/kg; remark: listed apart in the source

Cmax [1] [µM]	AUC [2] [ng·h/mL]	AUC [3] [ng·h/mL]	half-life [4] [h]	Cmax [5] [µM]	half-life [6] [h]	SMILES
9	5100	30600	2.4	26.4	6.86	O=[N+]([O-])c1cc([N+](=O)[O-])c2[nH]c3c(N4CCN(CCc5ccc(F)c(F)c5)CC4)nc(CN4CCOCC4)nc3c2c1
11.9	6320		1.97			Cn1c2ccnc(N3CCOCC3)c2c2ncnc(N3CCN(CCc4ccc(F)c(F)c4)CC3)c21
15	14000		3.03			Cn1c2cccc(C(N)=O)c2c2nc(CN3CCOCC3)nc(N3CCN(CCc4ccc(F)c(F)c4)CC3)c21
